{
  "source": "patent US8293791B2",
  "about": "“Method of neuroprotection by pharmacological inhibition of AMP-activated protein kinase” (priority 2004, dated 2012)",
  "key": {"[1]": {"system": "AMPKα phosphorylation (pAMPK)", "assay": "Western blot analysis of pAMPK levels in brain hemispheres after MCAO or sham surgery", "format": "in vivo, mouse", "method": "Cerebral ischemia was induced by 120 minutes of reversible right middle cerebral artery occlusion (MCAO) under halothane anesthesia followed by reperfusion for various times for male C57B6 mice (Charles River) or male rats, as described by McCullough, et al., Stroke, 32, 796-802 (2001) and McCullough, et al., J. Neuroscience, 24, pp. 257-268 (2004), respectively. Intra-ischemic and 22 hour post-reperfusion neurological deficits (NDS) were scored as follows: 0, no deficit; 1, forelimb weakness and torso turning to the ipsilateral side when held by tail; 2, circling to affected side; 3, unable to bear weight on affected side; and 4, no spontaneous locomotor activity or barrel rolling. Any animal without deficit was excluded from the study. At end-ischemia, the animal was briefly re-anaesthetized and reperfusion was initiated by filament withdrawal. Sham animals were subjected to the equivalent surgical preparation, but the suture was not advanced into the internal carotid. For the pharmacological neuroprotection studies, mice survived 22 hours after reperfusion, at which time behavioral scoring was done. The brain was then harvested for pathological examination with TTC histology (see Histopathology section). In separate animal cohorts, physiological measurements, femoral arterial blood pressure and cortical perfusion (laser Doppler flowmetry) were evaluated throughout MCAO and early reperfusion as described in the 2001 McCullough paper referenced above. Additional animals were exposed to ischemia or sham surgery after pharmacological or vehicle treatment and were sacrificed at 4 or 24 hours for Western blot analysis. Male nNOS and PARP-1 deficient mice (see, Huang, et al., Science, 265, 1883-1885 (1994); Eliasson, et al, Nat. Med, 3, 1089-1095 (1997)) were subjected to 2-hour right MCAO or sham surgery and compared to additional WT cohorts (C57-BL6 for nNOS−/− and SVEV for PARP−/−). Mouse and rat stroke and sham brain samples were obtained by rapid removal of the brain from the skulk resection of the cerebellum, followed by immediate dissection into the right (R) and left (L) hemispheres. Samples were flash frozen in liquid nitrogen. Samples from rats were further sub-dissected into core and penumbral regions for both hemispheres. Samples were stored at −80° C. until use. […] SDS detergent was added to a final concentration of 0.2%, and lysates were boiled for 5 min. After the supernatant was harvested, protein concentration was determined using a BCA kit (Bio Rad). 40 μg of protein was loaded per lane on a 4-15% gradient SDS-polyacrylamide gel, and transferred to a polyvinylidene difluoride membrane. Blots were successively probed, stripped and reprobed for antigen detection. Phosphorylation of AMPKα was determined using an anti-phospho-AMPKα (α1 and α2 Thr) antibody (1:1000, Cell Signaling). ACC (1:500), p-ACC (1:1000), pAkt (1:500), and Akt (1:500) antibodies were obtained from Upstate, Lake Placid, N.Y. Anti-AMPKα antibody (anti-α1 and α2, 1:1000; Cell Signaling), hsp-70 (1:1000; Santa Cruz), and β-actin (1:5000; Sigma) were used as loading controls. All blots were incubated overnight in primary antibody at 4° C. in TBS buffer containing 5% BSA and 0.1% Triton-X-100. The secondary antibody (goat anti-rabbit IgG, Chemicon) was diluted to 1:5,000, and ECL (pico) detection kit was used for signal detection."}, "male C57B6 mice [2]": {"system": "male C57B6 mice", "conditions": "mouse, in vivo"}, "male C57B6 mice [3]": {"system": "male C57B6 mice", "assay": "Infarction volume (TTC staining) after 2-hr reversible MCAO with 22 hr reperfusion", "format": "in vivo, mouse", "method": "Cerebral ischemia was induced by 120 minutes of reversible right middle cerebral artery occlusion (MCAO) under halothane anesthesia followed by reperfusion for various times for male C57B6 mice (Charles River) or male rats, as described by McCullough, et al., Stroke, 32, 796-802 (2001) and McCullough, et al., J. Neuroscience, 24, pp. 257-268 (2004), respectively. Intra-ischemic and 22 hour post-reperfusion neurological deficits (NDS) were scored as follows: 0, no deficit; 1, forelimb weakness and torso turning to the ipsilateral side when held by tail; 2, circling to affected side; 3, unable to bear weight on affected side; and 4, no spontaneous locomotor activity or barrel rolling. Any animal without deficit was excluded from the study. At end-ischemia, the animal was briefly re-anaesthetized and reperfusion was initiated by filament withdrawal. Sham animals were subjected to the equivalent surgical preparation, but the suture was not advanced into the internal carotid. For the pharmacological neuroprotection studies, mice survived 22 hours after reperfusion, at which time behavioral scoring was done. The brain was then harvested for pathological examination with TTC histology (see Histopathology section). In separate animal cohorts, physiological measurements, femoral arterial blood pressure and cortical perfusion (laser Doppler flowmetry) were evaluated throughout MCAO and early reperfusion as described in the 2001 McCullough paper referenced above. Additional animals were exposed to ischemia or sham surgery after pharmacological or vehicle treatment and were sacrificed at 4 or 24 hours for Western blot analysis. Male nNOS and PARP-1 deficient mice (see, Huang, et al., Science, 265, 1883-1885 (1994); Eliasson, et al, Nat. Med, 3, 1089-1095 (1997)) were subjected to 2-hour right MCAO or sham surgery and compared to additional WT cohorts (C57-BL6 for nNOS−/− and SVEV for PARP−/−). Infarction volume was analyzed by 2,3,5-triphenyltetrazolium staining in five 2-mm slices. Infarction volume was determined by video microscopy and image analysis (Inquiry 3, Loats Associates), as previously described by McCullough, et al., J. Neuroscience 23, pp. 8701-8705 (2003). All data are expressed as mean±SEM. Physiological variables and histology were analyzed by 1-way ANOVA with a post-hoc Newman-Keuls to correct for multiple comparisons. Post-ischemic neurological scores were analyzed by the Mann-Whitney U test. Values were considered statistically significant at *, p<0.05; **, p<0.01; ***, p<0.001"}, "male C57B6 mice [4]": {"system": "male C57B6 mice", "assay": "Physiological measurements, arterial blood pressure and laser Doppler flow during MCAO and early reperfusion", "conditions": "for MAP: averaged over the 2 hours of ischemia (all); for MAP / LDF (% BL) / HCO3 / Hg / PCO2 / PO2 / Ph: n=4/group; for LDF (% BL) / HCO3 / Hg / PCO2 / PO2 / Ph: intra-ischemic; for LDF (% BL): averaged over the 2 hours of ischemia"}, "male C57B6 mice [5]": {"system": "male C57B6 mice", "assay": "Neurological deficit score (NDS) after MCAO", "format": "in vivo, mouse", "method": "Cerebral ischemia was induced by 120 minutes of reversible right middle cerebral artery occlusion (MCAO) under halothane anesthesia followed by reperfusion for various times for male C57B6 mice (Charles River) or male rats, as described by McCullough, et al., Stroke, 32, 796-802 (2001) and McCullough, et al., J. Neuroscience, 24, pp. 257-268 (2004), respectively. Intra-ischemic and 22 hour post-reperfusion neurological deficits (NDS) were scored as follows: 0, no deficit; 1, forelimb weakness and torso turning to the ipsilateral side when held by tail; 2, circling to affected side; 3, unable to bear weight on affected side; and 4, no spontaneous locomotor activity or barrel rolling. Any animal without deficit was excluded from the study. At end-ischemia, the animal was briefly re-anaesthetized and reperfusion was initiated by filament withdrawal. […] In separate animal cohorts, physiological measurements, femoral arterial blood pressure and cortical perfusion (laser Doppler flowmetry) were evaluated throughout MCAO and early reperfusion as described in the 2001 McCullough paper referenced above. […]\nAll data are expressed as mean±SEM. Physiological variables and histology were analyzed by 1-way ANOVA with a post-hoc Newman-Keuls to correct for multiple comparisons. Post-ischemic neurological scores were analyzed by the Mann-Whitney U test. […]"}},
  "note": "“Also recorded” adds a separate entry of the source. Like-named read-outs stand apart in the source and are kept apart here.",
  "data": [
    {"smiles": "NC(=O)c1ncn([C@@H]2O[C@H](CO)[C@@H](O)[C@H]2O)c1N", "note": "[AICAR, 5-aminoimidazole-4-carboxamide ribonucleoside]", "values": [
      {"measurement": "pAMPK by 24 hr", "setting": "[1]; AICAR treated animals", "result": "returned to baseline"},
      {"measurement": "pAMPK 4 hr following stroke (2 hours of reperfusion)", "setting": "[1]; AICAR treated vs vehicle treated animals", "result": "elevations"},
      {"measurement": "CBF at 30 minutes after reperfusion", "setting": "male C57B6 mice [2]", "result": "82.7 % of baseline"},
      {"measurement": "HCO3", "setting": "male C57B6 mice [2]", "result": "22.9 ± 2.3"},
      {"measurement": "Hg", "setting": "male C57B6 mice [2]", "result": "13.4 ± 0.9"},
      {"measurement": "LDF (% BL)", "setting": "male C57B6 mice [2]", "result": "11.1 ± 1.2", "unit": "% BL"},
      {"measurement": "MAP", "setting": "male C57B6 mice [2]", "result": "77.7 ± 7.3 (all)"},
      {"measurement": "PCO2", "setting": "male C57B6 mice [2]", "result": "39.7 ± 4.9"},
      {"measurement": "PO2", "setting": "male C57B6 mice [2]", "result": "128 ± 15.2"},
      {"measurement": "Ph", "setting": "male C57B6 mice [2]", "result": "7.33 ± 0.11"},
      {"measurement": "intraischemic CBF, vs controls", "setting": "male C57B6 mice [2]", "result": "no differences"},
      {"measurement": "mean arterial pressure (MAP) at 15 minutes after injection", "setting": "male C57B6 mice [2]", "result": 69, "unit": "mmHg"},
      {"measurement": "total and cortical (CTX) stroke volumes", "setting": "male C57B6 mice [3]; AICAR 500 mg/kg i.p. at stroke onset, vs vehicle", "result": "significant exacerbation"}
    ]},
    {"smiles": "C=C1C(=O)OC(CCCCCCCC)C1C(=O)O", "note": "(stereo not drawn) [C75]", "values": [
      {"measurement": "increase in pAMPK levels at 4 hr (2 hr of reperfusion)", "setting": "[1]; C75 treated mice vs vehicle, 2-hour MCAO", "result": "blunted"},
      {"measurement": "pAMPK levels 24 hr following stroke", "setting": "[1]; C75 treated vs vehicle, both sham and stroke mice", "result": "reduced; also recorded: Reductions"},
      {"measurement": "LDF or physiological variables, vs vehicle", "setting": "male C57B6 mice [4]; C75 20 mg/kg i.p., n=4", "result": "no differences"},
      {"measurement": "MAP", "setting": "male C57B6 mice [4]", "result": "79.1 ± 6.5"},
      {"measurement": "LDF (% BL)", "setting": "male C57B6 mice [4]", "result": "10.6 ± 0.88", "unit": "% BL"},
      {"measurement": "HCO3", "setting": "male C57B6 mice [4]", "result": "22.8 ± 1.2"},
      {"measurement": "Hg", "setting": "male C57B6 mice [4]", "result": "12.9 ± 0.5"},
      {"measurement": "PCO2", "setting": "male C57B6 mice [4]", "result": "47 ± 7.1"},
      {"measurement": "PO2", "setting": "male C57B6 mice [4]", "result": "135 ± 14.2"},
      {"measurement": "Ph", "setting": "male C57B6 mice [4]", "result": "7.34 ± 0.08"},
      {"measurement": "total and regional infarction volume", "setting": "male C57B6 mice [3]; C75 20 mg/kg i.p. immediately prior to onset of ischemia, vs vehicle (RPMI), p<0.001", "result": "significant reduction"},
      {"measurement": "behavioral scores (score 0-4)", "setting": "male C57B6 mice [5]; C75 20 mg/kg i.p. immediately prior to onset of ischemia, vehicle 3.2±0.05", "result": "2.0±0.03"}
    ]},
    {"smiles": "c1cc(-c2cnn3cc(-c4ccc(OCCN5CCCCC5)cc4)cnc23)ccn1", "note": "[Compound C]", "values": [
      {"measurement": "pAMPK levels 4 hr after infarction (2 hours of reperfusion)", "setting": "[1]; Compound C treated mice vs vehicle, 2 hours MCAO", "result": "reduced"},
      {"measurement": "relative cerebral blood flow (CBF) by laser Doppler, intraischemic and during the 30 minutes after reperfusion, vs vehicle", "setting": "male C57B6 mice [4]; Compound C 20 mg/kg i.p.", "result": "no difference"},
      {"measurement": "relative cerebral blood flow (CBF) by laser Doppler, intraischemic period", "setting": "male C57B6 mice [4]; Compound C 20 mg/kg i.p., vehicle 9.8±0.54, p=n.s.", "result": "10.6±0.9 % of baseline"},
      {"measurement": "MAP", "setting": "male C57B6 mice [4]", "result": "82.2 ± 5.9"},
      {"measurement": "LDF (% BL)", "setting": "male C57B6 mice [4]", "result": "10.6 ± 0.9", "unit": "% BL"},
      {"measurement": "HCO3", "setting": "male C57B6 mice [4]", "result": "23.1 ± 0.08"},
      {"measurement": "Hg", "setting": "male C57B6 mice [4]", "result": "12.7 ± 1.3"},
      {"measurement": "PCO2", "setting": "male C57B6 mice [4]", "result": "42.1 ± 3.1"},
      {"measurement": "PO2", "setting": "male C57B6 mice [4]", "result": "144.6 ± 14.3"},
      {"measurement": "Ph", "setting": "male C57B6 mice [4]", "result": "7.36 ± 0.07"},
      {"measurement": "cortical (CTX) infarct volume", "setting": "male C57B6 mice [3]; Compound C 20 mg/kg i.p. at stroke onset, 2-hr MCAO, 22 hr reperfusion, vehicle 63±3.4", "result": "19.4±3.3", "unit": "% non-ischemic hemisphere"},
      {"measurement": "striatal (CP) infarct volume", "setting": "male C57B6 mice [3]; Compound C 20 mg/kg i.p. at stroke onset, 2-hr MCAO, 22 hr reperfusion, vehicle 64±5.7", "result": "21±3.9", "unit": "% non-ischemic hemisphere"},
      {"measurement": "total infarct volume", "setting": "male C57B6 mice [3]; Compound C 20 mg/kg i.p. at stroke onset, 2-hr MCAO, 22 hr reperfusion, vs vehicle", "result": "significantly reduced"},
      {"measurement": "severity of behavioral deficits at 24 hours (score 0-4)", "setting": "male C57B6 mice [5]; Compound C 20 mg/kg i.p. at stroke onset, vehicle 3.3±0.3", "result": "1.9±0.2"}
    ]}
  ]
}
